Results: ChEMBL document CHEMBL1255331, “Emergence of fluoroquinolone resistance in group B streptococcal isolates in Taiwan” (2008)
Values after ≈ are worked out from the molar mass of the structure shown.

Tests used:
Format in all cases: functional
[1] = tested on: Streptococcus sp. 'group B'; test: Antimicrobial activity against Streptococcus sp. 'group B' isolate 16 harboring gyrA Ser81Leu mutant, parC Ser79Tyr mutant and parE Ileu495Leu mutant gene by agar dilution method
[2] = tested on: Streptococcus sp. 'group B'; test: Antimicrobial activity against Streptococcus sp. 'group B' isolate 9 harboring gyrA Ser81Leu mutant, parC Ser79Tyr mutant and parE Ileu495Leu mutant gene by agar dilution method
[3] = tested on: Streptococcus sp. 'group B'; test: Antimicrobial activity against Streptococcus sp. 'group B' isolate 1 harboring gyrA Glu85Lys mutant, parC Ser79Tyr mutant and parE Ileu495Leu mutant gene by agar dilution method

| Compound | MIC [1] | MIC [2] | MIC [3] |
| --- | --- | --- | --- |
| O=C(O)c1cn(C2CC2)c2cc(N3CCNCC3)c(F)cc2c1=O [CIPROFLOXACIN] | 32 µg/mL (≈ 96.6 µM) | 64 µg/mL (≈ 193 µM) | – |
| C[C@H]1COc2c(N3CCN(C)CC3)c(F)cc3c(=O)c(C(=O)O)cn1c23.C[C@H]1COc2c(N3CCN(C)CC3)c(F)cc3c(=O)c(C(=O)O)cn1c23.O [LEVOFLOXACIN] | 32 µg/mL | 16 µg/mL | 16 µg/mL |
| COc1c(N2C[C@@H]3CCCN[C@@H]3C2)c(F)cc2c(=O)c(C(=O)O)cn(C3CC3)c12 [MOXIFLOXACIN] | 4 µg/mL (≈ 9.96 µM) | 4 µg/mL (≈ 9.96 µM) | 2 µg/mL (≈ 4.98 µM) |
| N[C@@H]1[C@H]2CN(c3nc4c(cc3F)c(=O)c(C(=O)O)cn4-c3ccc(F)cc3F)C[C@@H]12 [TROVAFLOXACIN] | 16 µg/mL (≈ 38.4 µM) | 8 µg/mL (≈ 19.2 µM) | 8 µg/mL (≈ 19.2 µM) |
| C[C@H]1NCc2cc(-c3ccc4c(=O)c(C(=O)O)cn(C5CC5)c4c3OC(F)F)ccc21 [GARENOXACIN] | 2 µg/mL (≈ 4.69 µM) | 2 µg/mL (≈ 4.69 µM) | 2 µg/mL (≈ 4.69 µM) |
| COc1c(N2CCNC(C)C2)c(F)cc2c(=O)c(C(=O)O)cn(C3CC3)c12 (configuration not stated) [GATIFLOXACIN] | 8 µg/mL (≈ 21.3 µM) | 4 µg/mL (≈ 10.7 µM) | 4 µg/mL (≈ 10.7 µM) |
